Source: patent US6716852B2, “Amino acid derivatives and use thereof as NEP, ACE and ECE inhibitors” (Les Laboratories Servier, priority 2000, dated 2004)

Tests used:
Type in all cases: biochemical
Neutral endopeptidase = biological target: T1, Neutral endopeptidase (Oryctolagus cuniculus, UniProt P08049); experiment: Inhibition of neutral endopeptidase (fluorescent substrate DGNPA); settings: NEP purified from rabbit kidney
T1 construct: Neutral endopeptidase is purified from rabbit kidney; from tissue; host or cells: rabbit kidney
T1 sequence (P08049 1-750): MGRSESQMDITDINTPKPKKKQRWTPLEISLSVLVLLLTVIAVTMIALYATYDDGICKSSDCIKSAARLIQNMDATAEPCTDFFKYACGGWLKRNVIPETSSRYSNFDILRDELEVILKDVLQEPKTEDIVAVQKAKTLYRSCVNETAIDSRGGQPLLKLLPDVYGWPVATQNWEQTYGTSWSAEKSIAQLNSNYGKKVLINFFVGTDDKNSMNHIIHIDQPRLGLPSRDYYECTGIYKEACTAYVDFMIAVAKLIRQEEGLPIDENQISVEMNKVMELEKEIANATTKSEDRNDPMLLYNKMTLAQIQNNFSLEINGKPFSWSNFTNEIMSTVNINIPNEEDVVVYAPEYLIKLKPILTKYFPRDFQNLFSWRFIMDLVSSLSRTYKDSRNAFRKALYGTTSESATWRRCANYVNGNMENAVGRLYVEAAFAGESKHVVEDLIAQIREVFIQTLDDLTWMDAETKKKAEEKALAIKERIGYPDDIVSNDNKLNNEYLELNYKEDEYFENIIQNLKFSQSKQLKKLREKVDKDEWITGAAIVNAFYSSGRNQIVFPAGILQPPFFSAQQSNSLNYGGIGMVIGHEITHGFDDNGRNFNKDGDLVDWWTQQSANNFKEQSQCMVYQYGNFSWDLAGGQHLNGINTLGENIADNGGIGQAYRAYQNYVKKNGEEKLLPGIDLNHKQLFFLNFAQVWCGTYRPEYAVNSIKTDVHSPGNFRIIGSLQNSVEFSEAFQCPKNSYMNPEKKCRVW
Text: Neutral endopeptidase is purified from rabbit kidney according to the procedure described by Aubry et al. (Biochem. Cell Biol., 1987, 65, pp. 1037-1042).

ECE-1c = biological target: T2, ECE-1c (Homo sapiens, UniProt P42892); experiment: Inhibition of endothelin converting enzyme (radiolabelled BigET-1 (19-35) substrate); settings: ECE-1c expressed in Cos-7 cells; preincubated 10 minutes at 37° C., pH 6.5; read-out: Ki, inhibition of big endothelin converting enzyme
T2 construct: made in house; host or cells: Cos-7 cells (pcDNA3 vector, electroporation); membrane fraction extracted with 1% beta-octylglucose
T2 sequence (P42892 1-754 isoform P42892-3): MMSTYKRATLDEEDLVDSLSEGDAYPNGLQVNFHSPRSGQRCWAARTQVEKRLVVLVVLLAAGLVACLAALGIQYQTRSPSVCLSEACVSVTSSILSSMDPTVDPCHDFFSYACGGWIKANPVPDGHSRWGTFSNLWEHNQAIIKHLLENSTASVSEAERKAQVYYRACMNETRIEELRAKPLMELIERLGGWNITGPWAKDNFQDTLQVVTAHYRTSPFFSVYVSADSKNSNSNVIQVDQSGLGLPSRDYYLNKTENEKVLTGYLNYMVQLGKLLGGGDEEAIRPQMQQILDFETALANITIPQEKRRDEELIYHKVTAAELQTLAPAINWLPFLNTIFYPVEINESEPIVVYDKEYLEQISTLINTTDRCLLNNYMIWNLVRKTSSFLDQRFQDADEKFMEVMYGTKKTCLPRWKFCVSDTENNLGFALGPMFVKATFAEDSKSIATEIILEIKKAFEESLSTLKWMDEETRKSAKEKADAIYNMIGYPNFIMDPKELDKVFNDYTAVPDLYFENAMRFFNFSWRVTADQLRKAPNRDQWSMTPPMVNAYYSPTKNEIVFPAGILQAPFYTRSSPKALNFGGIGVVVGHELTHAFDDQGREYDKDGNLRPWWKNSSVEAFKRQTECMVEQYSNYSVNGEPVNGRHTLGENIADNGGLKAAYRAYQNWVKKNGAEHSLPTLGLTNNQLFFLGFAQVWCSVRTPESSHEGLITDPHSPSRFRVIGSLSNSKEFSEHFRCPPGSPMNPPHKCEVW
Description: The cDNA of ECE-1c (membrane form of the enzyme, Biochem. J., 1997, 328, pp. 871-877), was inserted into a pcDNA3 eucaryotic expression vector and then transfected by electroporation and expressed in Cos-7 cells.
To measure the ECE activity, the cells are homogenised and the membrane fraction is recovered. The enzyme is extracted by dissolution in β-octylglucose (1%).
The peptide BigET-1 (19-35) was prepared by solid phase synthesis in Fmoc chemistry and purified by semi-preparative HPLC. The propionylation of the peptide was effected by the action of N-succinimidyl-[2,3-^3H]-propionate on the peptide BigET-1 (19-35) and the radiolabelled product was purified by HPLC. The specific activity of the substrate is 97 Ci/mmole.
ECE-1c (10 μl of a solution diluted to 1/10) is dissolved in 400 μl of Trismaleate 50 mM, pH 6.5, in the presence of 250 mM NaCl. The reaction is initiated by the addition of 10 μl of the radioactive substrate (final concentration 1×10^−9 M). After incubation for 1 hour at 37° C., the reaction is stopped by the addition of 600 μl of ethyl acetate. The metabolite is separated from the intact substrate by liquid—liquid extraction. The radioactivity of the metabolite is determined by liquid scintillation. The kinetic constants of the substrate are: Km=[…] and Vmax=2.98±0.24 mmol/mg. prot./min.
The controls of 0% and 100% degradation are obtained, respectively, by incubation of the substrate with the inactivated enzyme and with the native enzyme in the absence of inhibitors.

[1] = biological target: T3, angiotensin I converting enzyme (ACE) (Rattus norvegicus, UniProt P47820); experiment: Inhibition of angiotensin I converting enzyme (substrate N-Cbz-Phe-His-Leu); settings: ACE purified from rat testicle
T3 construct: ACE is purified from rat testicle; from tissue; host or cells: rat testicle
T3 sequence (P47820 1-775 isoform P47820-2): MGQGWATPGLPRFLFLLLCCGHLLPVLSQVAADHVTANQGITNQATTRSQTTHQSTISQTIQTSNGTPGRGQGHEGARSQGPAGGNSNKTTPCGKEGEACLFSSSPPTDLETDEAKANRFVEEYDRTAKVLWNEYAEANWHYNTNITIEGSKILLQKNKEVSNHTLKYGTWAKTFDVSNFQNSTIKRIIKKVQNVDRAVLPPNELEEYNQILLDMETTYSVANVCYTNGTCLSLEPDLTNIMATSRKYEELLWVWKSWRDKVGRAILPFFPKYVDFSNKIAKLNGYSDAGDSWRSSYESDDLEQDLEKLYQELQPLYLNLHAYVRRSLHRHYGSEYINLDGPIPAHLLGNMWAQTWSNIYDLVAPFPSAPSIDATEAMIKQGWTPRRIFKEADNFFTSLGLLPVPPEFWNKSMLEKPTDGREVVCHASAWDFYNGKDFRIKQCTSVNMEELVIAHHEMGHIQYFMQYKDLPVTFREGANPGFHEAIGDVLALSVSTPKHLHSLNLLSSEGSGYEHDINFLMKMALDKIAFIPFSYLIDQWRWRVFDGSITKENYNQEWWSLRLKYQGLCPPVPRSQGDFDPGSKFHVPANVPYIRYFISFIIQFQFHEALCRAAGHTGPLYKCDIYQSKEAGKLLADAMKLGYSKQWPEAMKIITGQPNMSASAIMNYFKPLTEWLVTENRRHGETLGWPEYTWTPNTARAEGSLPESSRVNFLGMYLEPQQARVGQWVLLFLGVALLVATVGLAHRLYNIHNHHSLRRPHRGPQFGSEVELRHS
Description: ACE is purified from rat testicle according to the procedure described by Pantaliano et al. (Biochemistry, 1984, 23, pp. 1037-1042).
The enzyme activity is measured using the synthetic substrate N-Cbz-Phe-His-Leu, Km=[…] (Piquilloud Y. et al., Biochem. Biophys. Acta, 1970, 206, pp. 136-142).

Structure (SMILES): O=C(N[C@@H](Cc1c[nH]c2ccccc12)C(=O)O)C(CS)C1CCc2cc(Br)ccc21 (stereo partly drawn) [13 (2S-3R-4S), N-[2-(5-Bromo-2,3-dihydro-1H-inden-1-yl)-3-mercaptopropanoyl]-tryptophan]
- Ki (Neutral endopeptidase): 3.28 ± 0.35 nM
- Ki (ECE-1c): 24.4 ± 1.4 nM
- Ki [1]: 4.09 ± 0.49 nM

Structure (SMILES): O=C(N[C@@H](Cc1c[nH]c2ncccc12)C(=O)O)C(CS)C1CCc2cc(Br)ccc21 (stereo partly drawn) [33 (2S-3R-4S), N-[2-(5-Bromo-2,3-dihydro-1H-inden-1-yl)-3-mercaptopropanoyl]-3-(1H-pyrrolo [2,3-b]pyridin-3-yl)alanine]
- Ki (Neutral endopeptidase): 2.91 ± 0.67 nM
- Ki (ECE-1c): 23.3 ± 3.2 nM
- Ki [1]: 1.32 ± 0.17 nM

Structure (SMILES): O=C(N[C@@H](Cc1c[nH]c2c1ccc1cccnc12)C(=O)O)C(CS)C1CCc2cc(Br)ccc21 (stereo partly drawn) [63 (2S-3R-4S), N-[2-(5-Bromo-2,3-dihydro-1H-inden-1-yl)-3-mercaptopropanoyl]-3-(1H-pyrrolo[3,2-h]quinolin-3-yl)alanine]
- Ki (Neutral endopeptidase): 10.2 ± 0.3 nM
- Ki (ECE-1c): 21.2 ± 2.5 nM
- Ki [1]: 3.7 ± 0.38 nM
